Measured values taken from ChEMBL document CHEMBL1136849, “Anthranilimide based glycogen phosphorylase inhibitors for the treatment of type 2 diabetes. Part 3: X-ray crystallographic characterization, core and urea optimization and in vivo efficacy” (Bioorg Med Chem Lett, 2009).

What was measured:
[1] = biological target: T1, Glycogen phosphorylase, liver form (Homo sapiens, UniProt P06737); test: Inhibition of human glycogen phosphorylase a in HepG2 cells assessed as inhibition of forskolin-stimulated glycogenolysis; format: cell-based
T1 sequence (P06737 whole entry): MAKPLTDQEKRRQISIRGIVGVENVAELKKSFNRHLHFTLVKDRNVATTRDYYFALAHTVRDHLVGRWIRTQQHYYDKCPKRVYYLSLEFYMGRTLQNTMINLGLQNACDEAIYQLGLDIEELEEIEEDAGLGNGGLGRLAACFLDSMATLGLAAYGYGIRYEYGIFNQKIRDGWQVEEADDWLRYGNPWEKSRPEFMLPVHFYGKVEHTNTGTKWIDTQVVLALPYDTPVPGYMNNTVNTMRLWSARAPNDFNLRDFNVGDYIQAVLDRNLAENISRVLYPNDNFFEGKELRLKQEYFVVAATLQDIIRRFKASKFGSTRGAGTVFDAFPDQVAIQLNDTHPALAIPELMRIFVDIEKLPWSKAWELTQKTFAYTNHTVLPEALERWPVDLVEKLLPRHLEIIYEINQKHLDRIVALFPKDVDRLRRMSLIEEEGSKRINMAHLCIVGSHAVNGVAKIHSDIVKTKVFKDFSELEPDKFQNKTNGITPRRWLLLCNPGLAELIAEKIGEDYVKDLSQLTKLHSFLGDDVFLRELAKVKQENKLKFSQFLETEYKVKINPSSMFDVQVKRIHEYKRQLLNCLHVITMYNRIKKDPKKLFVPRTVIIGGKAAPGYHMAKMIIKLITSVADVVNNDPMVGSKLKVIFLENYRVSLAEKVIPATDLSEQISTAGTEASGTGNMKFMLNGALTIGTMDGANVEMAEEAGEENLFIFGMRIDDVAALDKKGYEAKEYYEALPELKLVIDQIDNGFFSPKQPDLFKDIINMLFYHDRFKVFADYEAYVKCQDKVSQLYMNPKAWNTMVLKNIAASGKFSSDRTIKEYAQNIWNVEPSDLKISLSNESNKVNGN

[2] = biological target: T1, Glycogen phosphorylase, liver form; test: Inhibition of human liver glycogen phosphorylase a by coupled kinetic fluorescent intensity assay
[3] = Bioavailability in rat at 1 mg/kg, iv and 5 mg/kg, po; format: ADME, organism-based; conditions: in vivo
[4] = Clearance in rat at 1 mg/kg, iv and 5 mg/kg, po; format: ADME, organism-based; conditions: in vivo
[5] = test system: Rattus norvegicus; test: Reduction of glucagon-induced glucose AUC in CD rat at 5 mg/kg, po preincubated for 2 hrs before glucagon challenge; format: functional; parameters: scale not given: the % may be the effect or the level left
[6] = Half life in rat at 1 mg/kg, iv and 5 mg/kg, po; format: ADME, organism-based; conditions: in vivo
[7] = test system: Mus musculus; test: Antidiabetic effect in ob/ob B6.V-lep[ob]/J mouse assessed as decrease in blood glucose level at 15 mg/kg, po after 3 hrs; format: functional
[8] = Cmax in rat at 5 mg/kg, po; format: ADME, organism-based; parameters: dose 5 mg/kg, route oral; conditions: in vivo
[9] = test system: Rattus norvegicus; test: Reduction of glucagon-induced glucose AUC in CD rat at 2 mg/kg, po preincubated for 2 hrs before glucagon challenge; format: functional; parameters: scale not given: the % may be the effect or the level left

Row | Structure (SMILES) | IC50 [1] [µM] | IC50 [2] [µM] | also measured
1 | CCCc1cc(C)c(NC(=O)Nc2cc(-c3ccc(F)c(F)c3)ccc2C(=O)N[C@H](C(=O)O)[C@@H](C)OC(C)(C)C)c(C)c1 | 0.181 | 0.007 | 
2 | CCCc1cc(C)c(NC(=O)Nc2cc(-c3cccc(F)c3)ccc2C(=O)N[C@H](C(=O)O)[C@@H](C)OC(C)(C)C)c(C)c1 | 0.156 | 0.004 | 
3 | Cc1cc(CC2CC2)cc(C)c1NC(=O)Nc1cc(-c2cccc(F)c2)ccc1C(=O)N[C@H](C(=O)O)[C@@H](C)OC(C)(C)C | 0.145 |  | bioavailability [3]: 27%; clearance [4]: 15 mL/min/kg; Activity [5]: 65%; half-life [6]: 2.3 h; Activity [7]: 103 mg/dL; Cmax [8]: 536 ng/mL; Activity [9]: 62%
4 | COc1ccc(-c2ccc(C(=O)N[C@H](C(=O)O)[C@@H](C)OC(C)(C)C)c(NC(=O)Nc3c(C)cc(C)cc3C)c2)cc1 | 0.034 | 0.003 | 
5 | Cc1cc(C)c(NC(=O)Nc2cc(-c3ccccc3)ccc2C(=O)N[C@H](C(=O)O)[C@@H](C)OC(C)(C)C)c(C)c1 | 0.126 | 0.01 | 
6 | Cc1cc(C)c(NC(=O)Nc2cc(-c3ccc(F)cc3)ccc2C(=O)N[C@H](C(=O)O)[C@@H](C)OC(C)(C)C)c(C)c1 | 0.088 | 0.007 | 
7 | Cc1cc(C)c(NC(=O)Nc2cc3ccccc3cc2C(=O)N[C@H](C(=O)O)[C@@H](C)OC(C)(C)C)c(C)c1 |  |  | Activity [5]: 25%
8 | Cc1cc(C)c(NC(=O)Nc2cc(-c3cccc(F)c3)ccc2C(=O)N[C@H](C(=O)O)[C@@H](C)OC(C)(C)C)c(C)c1 | 0.104 | 0.015 | Activity [5]: 32%; Activity [9]: 10%
9 | COc1cccc(-c2ccc(C(=O)N[C@H](C(=O)O)[C@@H](C)OC(C)(C)C)c(NC(=O)Nc3c(C)cc(C)cc3C)c2)c1 | 0.109 | 0.008 | 
10 | CCCc1cc(C)c(NC(=O)Nc2cc(-c3ccc(OC)cc3)ccc2C(=O)N[C@H](C(=O)O)[C@@H](C)OC(C)(C)C)c(C)c1 | 0.135 |  | 
11 | Cc1cc(C)c(NC(=O)Nc2cc(-c3ccc(F)c(F)c3)ccc2C(=O)N[C@H](C(=O)O)[C@@H](C)OC(C)(C)C)c(C)c1 | 0.171 | 0.013 | 
12 | Cc1cc(C)c(NC(=O)Nc2ccccc2C(=O)N[C@H](C(=O)O)[C@@H](C)OC(C)(C)C)c(C)c1 | 1.68 | 0.542 | 
13 | COc1ccccc1-c1ccc(C(=O)N[C@H](C(=O)O)[C@@H](C)OC(C)(C)C)c(NC(=O)Nc2c(C)cc(C)cc2C)c1 | 0.353 | 0.028 | 

The next lines start with results.

Row | IC50 [1] [µM] | IC50 [2] [µM] | Structure (SMILES) | also measured
14 | 0.133 | 0.004 | Cc1cc(CC2CC2)cc(C)c1NC(=O)Nc1cc(F)ccc1C(=O)N[C@H](C(=O)O)[C@@H](C)OC(C)(C)C | Activity [5]: 36%; Activity [9]: 22%
15 | 0.147 | 0.01 | CCCc1cc(C)c(NC(=O)Nc2cc(F)ccc2C(=O)N[C@H](C(=O)O)[C@@H](C)OC(C)(C)C)c(C)c1 | 
16 | 0.384 | 0.013 | Cc1cc(CC2CC2)cc(C)c1NC(=O)Nc1cc(F)ccc1C(=O)N[C@H](C(=O)O)C1CCCCC1 | 
17 | 0.229 | 0.019 | CCCc1cc(C)c(NC(=O)Nc2cc(F)ccc2C(=O)N[C@H](C(=O)O)C2CCCCC2)c(C)c1 | 
18 | 0.513 | 0.087 | CCc1cc(C)c(NC(=O)Nc2cc(F)ccc2C(=O)N[C@H](C(=O)O)C2CCCCC2)c(C)c1 | 
19 | 1.03 | 0.143 | Cc1cc(C)c(NC(=O)Nc2cc(F)ccc2C(=O)N[C@H](C(=O)O)C2CCCCC2)c(C)c1 | 
20 | 8.26 | 1.07 | Cc1cccc(C)c1NC(=O)Nc1cc(F)ccc1C(=O)N[C@H](C(=O)O)C1CCCCC1 | 
21 | 0.716 | 0.049 | CCCCc1cc(C)c(NC(=O)Nc2cc(F)ccc2C(=O)N[C@H](C(=O)O)C2CCCCC2)c(C)c1 | 
22 | 1.82 | 0.506 | Cc1cc(C)c(NC(=O)Nc2cc(F)ccc2C(=O)N[C@H](C(=O)O)[C@@H](C)OC(C)(C)C)c(C)c1 | 
